# Measured values taken from patent publication US9475773B2, “NK3 receptor antagonist compound (NK3RA) for use in a method for the treatment of polycystic ovary syndrome (PCOS)” (ASTRAZENECA AB, priority 2013, dated 2016).
# Tests used:
# [1] = test system: guinea pig heart; test: Monophasic action potential of the guinea pig heart; assay type: in vivo; conditions: IV doses up to 46 mg/kg (100 μmol/kg)
# [2] = test system: LH, free and total testosterone; test: Phase 2a randomised double blind placebo controlled study in women with PCOS (interim data); assay type: in vivo, human
# Protocol: The pharmacodynamics, safety and pharmacokinetics of a compound of the present invention, NK3RA, is being further evaluated in a randomized, double-blind, placebo-controlled of NK3RA when given in multiple doses to females with PCOS.
# In this type of clinical trial three doses of 20 mg once daily, 20 mg twice daily and 40 mg twice daily of test compound are being compared to placebo, and studied in parallel group design. […] Exploratory analyses will focus on changes from baseline of LH, DHEA, FSH, oestrogen, progesterone, prolactin, thyroid stimulating hormone, Insulin-like Growth Factor 1 [IGF-1] (as surrogate for GH) and HbA1c on days 7 and 28, as well as the impact of treatment on patient reported outcomes and HRQoL as measured by change from baseline at day 28.
# The study population includes women with PCOS aged 18-45. The study will enroll 14 PCOS subjects per dose cohort with a total of N=56 for the entire study (2 drop outs per group assumed to give 12 evaluable subjects per dose). Patients are being dosed in the study over a duration of 28 days.
# The effect of NK3RA on testosterone and LH is being assessed. […] LH pulse amplitude and frequency are mathematically modelled parameters from raw LH assay data.
# Hourly measurement of FSH and free and total testosterone was performed during these periods of intensive monitoring.
# Interim data have been obtained from a total of 20 women with Polycystic Ovary Syndrome (PCOS) who received treatment (NK3RA or placebo) in the ongoing phase 2a study. This study is a 28 day, randomised, double blind placebo controlled study with 4 treatment arms, NK3RA 20 mg once daily, 20 mg twice daily, 40 mg twice daily and placebo in women with PCOS.
# Tables 1 to 3 below summarise the number of patients with data supportive, consistent and not supportive by treatment group (placebo and NK3RA).
# In Table 1 the criteria used to determine what is supportive, consistent or not supportive are based on a qualitative evaluation of the changes in:
# (a) LH area under the curve (AUC) between 0 and 8 hours AUC(0-8)
# (b) LH pulsatility parameters derived through deconvolution (Veldhuis J D, Keenan D M, and Pincus S M. Motivations and methods for analyzing pulsatile hormone secretion. Endocrine Reviews. 2008, 29(7):823-864; and Liu P Y, Keenan D M, Kok P, Padmanabhan V, O'Byrne K T, and Veldhuis J D. Sensitivity and specificity of pulse detection using a new deconvolution method. Am J Physiol Endocrinol Metab. 2009; 297(2):538-44) • i) average mass per LH pulse in 8 hours • ii) total number of LH pulses in 8 hours.
# For LH, there is a relationship between the LH AUC(0-8) and LH pulsatility. In particular, reductions in LH AUC(0-8) that would be considered to be disease modifying in PCOS will manifest themselves in pulsatility parameters of average mass per LH pulse in 8 hours and/or total number of LH pulses in 8 hours. Mass per pulse (MPP) is defined the amount of LH released per reconstructed LH pulse. The LH AUC(0-8) can be more reliably measured compared to the pulsatility parameters and therefore why both AUC(0-8) and pulsatility are considered in interpreting the level of LH reduction.
# In Table 2 the criteria used to determine what is supportive, consistent or not supportive are based on a qualitative evaluation of the changes in average (on an individual patient basis) free testosterone.
# In Table 3 the criteria used to determine what is supportive, consistent or not supportive are based on a qualitative evaluation of the changes in average (on an individual patient basis) total testosterone.
# Expert judgement was necessary in the application of these criteria and therefore plots were evaluated independently by 3 AZ physicians. The most common result across the 3 physicians determined provided the overall evaluation for a single patient. These criteria were agreed between the 3 reviewers ahead of the plots being available for review. […]
# [3] = test system: mice; test: Neurobehavioral test battery in mice; assay type: in vivo; conditions: oral doses 100, 300 and 600 mg/kg
# Protocol: (§1) Safety pharmacology studies were carried out on NK3RA and included tests to investigate possible effects on the central nervous system (CNS), cardiovascular system, and respiratory system.
# [4] = test system: rat; test: Modified rat Irwin test; assay type: in vivo; conditions: oral 46, 460 and 2022 mg/kg
# Protocol: as §1
# [5] = test system: serum testosterone; test: Phase II PoP schizophrenia trial, serum testosterone; assay type: in vivo, human; conditions: schizophrenia patients, 40 mg QD
# [6] = target: T1, NK3 receptor (Homo sapiens, UniProt P29371); test: In vitro target engagement; assay type: binding; conditions: n=12
# T1 sequence (P29371 1-465): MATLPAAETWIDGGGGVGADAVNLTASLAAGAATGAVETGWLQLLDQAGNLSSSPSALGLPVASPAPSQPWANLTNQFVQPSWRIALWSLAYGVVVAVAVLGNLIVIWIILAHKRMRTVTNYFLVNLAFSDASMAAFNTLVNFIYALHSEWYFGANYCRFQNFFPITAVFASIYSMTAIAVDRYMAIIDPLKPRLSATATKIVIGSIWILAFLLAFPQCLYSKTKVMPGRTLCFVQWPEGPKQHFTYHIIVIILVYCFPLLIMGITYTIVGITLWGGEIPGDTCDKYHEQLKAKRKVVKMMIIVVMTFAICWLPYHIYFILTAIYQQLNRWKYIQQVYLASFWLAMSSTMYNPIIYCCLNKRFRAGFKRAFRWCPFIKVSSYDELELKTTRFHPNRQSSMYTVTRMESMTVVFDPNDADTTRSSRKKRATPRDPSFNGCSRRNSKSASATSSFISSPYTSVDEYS
# [7] = test system: female rabbits; test: Rabbit maternal toxicity and fetal observations; assay type: in vivo
# Protocol: In female rabbits, the no effect dose level for maternal toxicity was 25 mg/kg/day. The no adverse effect dose level for fetal observations was 50 mg/kg/day.
# [8] = decrease vs baseline on both days 7 and 28
# [9] = decrease vs baseline on either days 7 and 28
# [10] = increase vs baseline on both days 7 and 28
smiles,measurement,setting,value
"CC[C@H](NC(=O)c1c(NS(C)(=O)=O)c(-c2ccccc2)nc2ccccc12)c1ccccc1 [NK3RA, 3-(methanesulfonamido)-2-phenyl-N-[(1S)-1-phenylpropyl]quinoline-4-carboxamide]",effect on monophasic action potential,[1],without effect
same,LH: No. of patients Supportive,"[2]; NK3RA arms pooled, LH AUC decreases on both days 7 and 28 AND MPP or number of pulses decrease",2
same,LH: No. of patients Consistent,"[2]; NK3RA arms pooled, LH AUC decreases on both days 7 and 28 OR MPP or number of pulses decrease",3
same,LH: No. of patients Non-supportive,"[2]; NK3RA arms pooled, LH AUC, MPP and number of pulses increase on day 7 or 28",3
same,Free testosterone: No. of patients Supportive,[2]; [8],2
same,Total Testosterone: No. of patients Supportive,[2]; [8],3
same,Free testosterone: No. of patients Consistent,[2]; [9],4
same,Total Testosterone: No. of patients Consistent,[2]; [9],3
same,Free testosterone: No. of patients Non-supportive,[2]; [10],3
same,Total Testosterone: No. of patients Non-supportive,[2]; [10],4
same,neurobehavioral effects,[3],transient deficits in gait and spontaneous motor activity
same,time to full recovery,[3],≤ 24 h
same,findings in modified Irwin test,[4],no significant findings
same,serum testosterone,[5],reduction in serum testosterone
same,IC50,[6],2.24 ± 0.57 nM
same,no adverse effect dose level for fetal observations,[7],50 mg/kg/day
same,no effect dose level for maternal toxicity,[7],25 mg/kg/day
